In the PolyMetriX glass transition set one finds glass transition temperature data, which are given here for 59 molecules.

For the molecule `*C(=O)Nc1ccc(C(c2ccc(NC(=O)c3ccc4c(c3)C(=O)N(c3c(C)cc(-c5cc(C)c(N6C(=O)c7ccc(*)cc7C6=O)c6ccccc56)c5ccccc35)C4=O)cc2)(C(F)(F)F)C(F)(F)F)cc1` (repeat unit), the glass transition temperature was found to be 250.00 °C.

For the molecule `*C(=O)Oc1ccc(C(=O)Oc2cccc(OC(=O)c3ccc(OC(=O)c4ccc(*)nc4)cc3)c2)cc1` (repeat unit), the glass transition temperature was 110.00 °C.

In the case of `*C(=O)Oc1ccc2ccc(OC(=O)c3ccc4c(c3)C(=O)N(c3ccc(Oc5ccc(N6C(=O)c7ccc(*)cc7C6=O)cc5)cc3)C4=O)cc2c1` (repeat unit), the glass transition temperature stood at 246.00 °C.

Consider `*C(=O)c1ccc2c(c1)C(=O)N(c1cc(-c3nc4ccccc4[nH]3)cc(N3C(=O)c4ccc(*)cc4C3=O)c1)C2=O` (repeat unit), for which the glass transition temperature was 197.00 °C.

Regarding `*C(=O)c1ccc2c(c1)C(=O)N(c1cc(/C=N/C(=S)Nc3ccc(N4C(=O)c5ccc(*)cc5C4=O)cc3)ccc1Cl)C2=O` (repeat unit), the glass transition temperature was determined as 274.00 °C.

`*C(=O)c1ccc2c(c1)C(=O)N(c1cc(Br)c(Oc3c(Br)cc(N4C(=O)c5ccc(*)cc5C4=O)cc3Br)c(Br)c1)C2=O` (repeat unit) had a glass transition temperature of 323.00 °C.

With `*C(=O)c1ccc2c(c1)C(=O)N(c1ccc(-c3ccc(N4C(=O)c5ccc(*)cc5C4=O)cc3)cc1)C2=O` (repeat unit), the glass transition temperature turned out to be 382.00 °C.

`*CCCOCCCCOCCCN1C(=O)c2ccc(C(=O)Oc3ccc4cc(OC(=O)c5ccc6c(c5)C(=O)N(*)C6=O)ccc4c3)cc2C1=O` (repeat unit) yielded a glass transition temperature of 68.00 °C.

Consider `*CCN(Cc1ccccc1)C(=O)S*` (repeat unit), for which the glass transition temperature turned out to be 32.00 °C.

As for `*OC(=O)c1cccc(C(=O)Oc2ccc3c(c2)Oc2cc(*)ccc2C32OC(=O)c3ccccc32)c1` (repeat unit), the glass transition temperature was determined as 276.00 °C.

`*O[Si](c1ccccc1)(c1ccccc1)c1cccc(*)c1` (repeat unit) had a glass transition temperature of 62.00 °C.

`*Oc1ccc(Oc2cccc(*)n2)c(-c2ccccc2)c1` (repeat unit): the glass transition temperature stood at 115.00 °C.

Molecule `*Oc1ccc(Oc2cccc(*)n2)c(C)c1` (repeat unit) registered a glass transition temperature of 89.00 °C.

As to `*Oc1ccc(SC(=O)Sc2ccc(*)cc2)cc1` (repeat unit), the glass transition temperature worked out at 117.00 °C.

As to `*Oc1ccc(SSc2ccc(*)cc2)cc1` (repeat unit), the glass transition temperature amounted to 76.80 °C.

`*Oc1ccc2cc(OC(=O)c3ccc(Oc4ccc(C(*)=O)cc4)cc3)ccc2c1` (repeat unit) gave a glass transition temperature of 145.00 °C.

The molecule `*Oc1cccc(C(*)=O)c1` (repeat unit) returned a glass transition temperature of 162.00 °C.

Turning to `*Oc1cccc(OC(=O)c2ccc(Oc3ccc(C(*)=O)cc3)cc2)c1` (repeat unit), the glass transition temperature was found to be 159.00 °C.

Take `*Oc1cccc(OC(=O)c2cccc(C(*)=O)c2)c1` (repeat unit): the glass transition temperature turned out to be 147.00 °C.

`*Oc1cccc(Oc2ccc3c(=O)n4c5cc(-c6ccc7c(c6)nc6c8ccc(*)c9cccc(c(=O)n76)c98)ccc5nc4c4cccc2c34)c1` (repeat unit) returned a glass transition temperature of 396.50 °C.

In turn, `*Oc1cccc(Oc2cccc(*)c2)c1C#N` (repeat unit) yielded a glass transition temperature of 145.00 °C.

In turn, `*Oc1cccc(Oc2cccc(NC(=O)c3cc(Oc4ccc(C(=O)O)c(C(=O)Nc5cccc(*)c5)c4)ccc3C(=O)O)c2)c1C#N` (repeat unit) showed a glass transition temperature of 200.10 °C.

`*Oc1cccc(Oc2cccc(OC(*)=O)c2)c1` (repeat unit) had a glass transition temperature of 71.00 °C.

`*Oc1ccccc1C(=O)OC(=O)c1ccccc1OC(=O)c1cccc(C(*)=O)c1` (repeat unit) gave a glass transition temperature of 105.00 °C.

`*SC1CCCC(*)C1` (repeat unit) showed a glass transition temperature of -52.00 °C.

With `*SC1CCCCC1*` (repeat unit), the glass transition temperature was -43.00 °C.

As to `*Sc1cc(C)c(*)cc1C` (repeat unit), the glass transition temperature came to 298.00 °C.

For `*Sc1ccc(Nc2ccc(*)cc2)cc1` (repeat unit), the glass transition temperature was determined as 145.00 °C.

As to `*Sc1ccc(Sc2ccc(Sc3ccc4c(c3)C(=O)N(N3C(=O)c5cccc(*)c5C3=O)C4=O)cc2)cc1` (repeat unit), the glass transition temperature is 242.00 °C.

Turning to `*Sc1cccc(Sc2ccc(Sc3ccc(*)cc3)cc2)c1` (repeat unit), the glass transition temperature came to 69.00 °C.

In the case of `*[Se]c1c(Cl)c(Cl)c(*)c(Cl)c1Cl` (repeat unit), the glass transition temperature was 104.00 °C.

As to `*[Si](*)(C)CCC(F)(F)F` (repeat unit), the glass transition temperature is -3.00 °C.

The molecule `*[Si](*)(CCCC)CCCCCC` (repeat unit) displayed a glass transition temperature of -40.00 °C.

Regarding `*[Si](*)(CCCCCC)c1ccccc1` (repeat unit), the glass transition temperature is -70.00 °C.

Take `*c1c(C)cc(C)c(-n2c(=O)c3cc4c(=O)n(*)c(=O)c4cc3c2=O)c1C` (repeat unit): the glass transition temperature turned out to be 399.8 °C.

Molecule `*c1ccc(-c2ccc(-c3nc4cc(Oc5ccc6nc(-c7ccccc7)c(*)nc6c5)ccc4nc3-c3ccccc3)cc2)cc1` (repeat unit) gave a glass transition temperature of 410.00 °C.

Regarding `*c1ccc(-c2ccc(-c3nc4ccc(Oc5ccc6nc(*)c(-c7ccccc7)c(-c7ccccc7)c6c5)cc4c(-c4ccccc4)c3-c3ccccc3)cc2)cc1` (repeat unit), the glass transition temperature stood at 351.00 °C.

Take `*c1ccc(-c2nc3cc(Oc4ccc5nc(-c6ccccc6)c(*)nc5c4)ccc3nc2-c2ccccc2)cc1` (repeat unit): the glass transition temperature is 304.00 °C.

The molecule `*c1ccc(Cc2ccc(N3C(=O)c4ccc(Sc5ccc6c(c5)C(=O)N(*)C6=O)cc4C3=O)cc2)cc1` (repeat unit) gave a glass transition temperature of 265.00 °C.

In turn, `*c1ccc(OCCOCCOCCOc2cccc(N3C(=O)c4ccc(Oc5ccc6c(c5)C(=O)N(*)C6=O)cc4C3=O)c2)cc1` (repeat unit) registered a glass transition temperature of 107.00 °C.

Molecule `*c1ccc(OCCOc2cccc(N3C(=O)c4ccc(Oc5ccc6c(c5)C(=O)N(*)C6=O)cc4C3=O)c2)cc1` (repeat unit) came in with a glass transition temperature of 178.50 °C.

The molecule `*c1ccc(Oc2ccc(-c3ccc(Oc4ccc(N5C(=O)c6ccc(Oc7ccccc7Oc7ccc8c(c7)C(=O)N(*)C8=O)cc6C5=O)cc4)cc3)cc2)cc1` (repeat unit) came in with a glass transition temperature of 204.00 °C.

Regarding `*c1ccc(Oc2ccc(-c3ccc(Oc4ccc(N5C(=O)c6cccc(Oc7c(Oc8cccc9c8C(=O)N(*)C9=O)cc(C(C)(C)C)cc7C(C)(C)C)c6C5=O)cc4)cc3)cc2)cc1` (repeat unit), the glass transition temperature came to 237.00 °C.

In turn, `*c1ccc(Oc2ccc(-c3nc4ccc(Oc5ccc6nc(*)c(-c7ccccc7)c(-c7ccccc7)c6c5)cc4c(-c4ccccc4)c3-c3ccccc3)cc2)cc1` (repeat unit) had a glass transition temperature of 305.00 °C.

On to `*c1ccc(Oc2ccc(C(c3ccc(Oc4ccc(N5C(=O)c6ccc(Oc7ccccc7Oc7ccc8c(c7)C(=O)N(*)C8=O)cc6C5=O)cc4C(F)(F)F)cc3)(C(F)(F)F)C(F)(F)F)cc2)c(C(F)(F)F)c1` (repeat unit), for which the glass transition temperature was determined as 191.00 °C.

In the case of `*c1ccc(Oc2ccc(N3C(=O)c4ccc(Oc5ccc6c(c5)C(=O)N(c5ncc(*)s5)C6=O)cc4C3=O)cc2)cc1` (repeat unit), the glass transition temperature was 300.00 °C.

In the case of `*c1ccc(Oc2ccc(N3C(=O)c4ccc(Oc5ccc6cc(Oc7ccc8c(c7)C(=O)N(*)C8=O)ccc6c5)cc4C3=O)cc2)cc1` (repeat unit), the glass transition temperature is 249.00 °C.

Consider `*c1ccc(Oc2ccc(N3C(=O)c4ccc(Sc5ccc6c(c5)C(=O)N(*)C6=O)cc4C3=O)cc2)cc1` (repeat unit), for which the glass transition temperature is 258.00 °C.

In the case of `*c1ccc(Oc2ccc(N3C(=O)c4cccc(Oc5c(Oc6cccc7c6C(=O)N(*)C7=O)cc(C(C)(C)C)cc5C(C)(C)C)c4C3=O)cc2)cc1` (repeat unit), the glass transition temperature was found to be 238.00 °C.

Regarding `*c1ccc(Oc2ccc(Oc3ccc(N4C(=O)c5ccc(Oc6ccccc6Oc6ccc7c(c6)C(=O)N(*)C7=O)cc5C4=O)cc3C(F)(F)F)cc2)c(C(F)(F)F)c1` (repeat unit), the glass transition temperature was 197.00 °C.

In turn, `*c1ccc(Oc2cccc(N3C(=O)c4ccc(Oc5cccc6c(Oc7ccc8c(c7)C(=O)N(*)C8=O)cccc56)cc4C3=O)c2)cc1` (repeat unit) came in with a glass transition temperature of 235.00 °C.

`*c1ccc(Oc2ccccc2Oc2ccc(N3C(=O)c4ccc(Oc5ccccc5Oc5ccc6c(c5)C(=O)N(*)C6=O)cc4C3=O)cc2)cc1` (repeat unit) had a glass transition temperature of 193.00 °C.

For `*c1ccc(Sc2ccc(Sc3ccc(N4C(=O)c5ccc(Sc6ccc(Sc7ccc(Sc8ccc9c(c8)C(=O)N(*)C9=O)cc7)cc6)cc5C4=O)cc3)cc2)cc1` (repeat unit), the glass transition temperature was determined as 190.8 °C.

Regarding `*c1ccc2c(c1)C(=O)N(c1c(C)c(C)c(N3C(=O)c4ccc(C(*)(C(F)(F)F)C(F)(F)F)cc4C3=O)c(C)c1C)C2=O` (repeat unit), the glass transition temperature was 420.00 °C.

`*c1ccc2c(c1)C(=O)N(c1c(C)cc(C(c3ccccc3)(c3cc(C)c(N4C(=O)c5ccc(C(*)(C(F)(F)F)C(F)(F)F)cc5C4=O)c(C(C)C)c3)C(F)(F)F)cc1C(C)C)C2=O` (repeat unit) gave a glass transition temperature of 289.00 °C.

For `*c1cccc(C(c2cccc(N3C(=O)c4ccc(Oc5ccc6c(c5)C(=O)N(*)C6=O)cc4C3=O)c2)(C(F)(F)F)C(F)(F)F)c1` (repeat unit), the glass transition temperature came to 224.50 °C.

As for `*c1cccc(N2C(=O)c3ccc(Oc4ccc5c(c4)C4(CC(C)(C)c6ccc(Oc7ccc8c(c7)C(=O)N(*)C8=O)cc64)CC5(C)C)cc3C2=O)c1` (repeat unit), the glass transition temperature was found to be 253.00 °C.

Consider `*c1cccc(N2C(=O)c3ccc(Oc4ccccc4Oc4ccc5c(c4)C(=O)N(*)C5=O)cc3C2=O)c1` (repeat unit), for which the glass transition temperature stood at 224.00 °C.

In the case of `*c1cccc(Oc2ccc(P(=O)(c3ccccc3)c3ccccc3)c(Oc3cccc(N4C(=O)c5ccc(Oc6ccc7c(c6)C(=O)N(*)C7=O)cc5C4=O)c3)c2)c1` (repeat unit), the glass transition temperature was found to be 212.00 °C.
